Reference: the supplement of paper PMC11821682

What was measured:
Danio rerio embryo [1] = test: LEL embryonic photomotor response 24 hpf
Description: (§1)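 ZBEscreen: dechorionated Tropical 5D zebrafish embryos were exposed from 4 hpf in 96-well plates (1% DMSO, 28 °C). All compounds were first tested at 100 µM; hits were retested at 0.005-100 µM. Morphology and mortality were scored at 120 hpf and fitted as BMC10 (3-parameter log-logistic, extra risk). The embryonic photomotor response at 24 hpf and the larval photomotor response at 120 hpf are given as lowest effect levels (K-S test, p<0.01). NA = not significant up to 100 µM; NT = not tested.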

HL-60 = test: Cell Health Index (toxicity pseudo-probability over dose series) (index 0-1); higher = more cytotoxic / cell stress;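 also: HL-60 cells exposed 4 h at 37 °C to ten threefold dilutions spanning 5 nM to 100 µM, multiparametric flow cytometry features scored by machine-learning classification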
Danio rerio embryo [2] = test: BMC10 any morphological effect or mortality at 120 hpf; higher = less toxic
Danio rerio embryo [3] = test: LEL larval photomotor response dark phase 120 hpf
Description: as §1

Danio rerio embryo [4] = test: BMC10 mortality 24-120 hpf; higher = less toxic
Description: as §1

Row | Structure (SMILES) | LEL embryonic photomotor response 24 hpf (Danio rerio embryo [1]) [µM] | Cell Health Index (HL-60) | BMC10 any morphological effect or mortality (Danio rerio embryo [2]) [µM] | LEL larval photomotor response dark phase 120 hpf (Danio rerio embryo [3]) [µM] | BMC10 mortality 24-120 hpf (Danio rerio embryo [4]) [µM]
1 | CCOC(=O)c1c(CSc2ccccc2)n(C)c2cc(Br)c(O)c(CN(C)C)c12.Cl [Umifenovir] | 3.7 | 0.791 | 3.37 | > 100 | 6.28
2 | O=c1cc(-c2ccc(O)cc2)oc2cc(O)cc(O)c12 [Apigenin] | > 100 | 0.288 | > 100 | > 100 | –
3 | COc1ccc(-c2coc3cc(O)ccc3c2=O)cc1 [Formononetin] | 100 | 0.288 | 23 | > 100 | –
4 | O=C(OC[C@H]1O[C@@H](OC(=O)c2cc(O)c(O)c(OC(=O)c3cc(O)c(O)c(O)c3)c2)[C@H](OC(=O)c2cc(O)c(O)c(OC(=O)c3cc(O)c(O)c(O)c3)c2)[C@@H](OC(=O)c2cc(O)c(O)c(OC(=O)c3cc(O)c(O)c(O)c3)c2)[C@@H]1OC(=O)c1cc(O)c(O)c(OC(=O)c2cc(O)c(O)c(O)c2)c1)c1cc(O)c(O)c(OC(=O)c2cc(O)c(O)c(O)c2)c1 [Chinese Gallotannin] | 100 | 0.935 | 32.8 | > 100 | –
5 | CC1(C)CC(NC(=O)C(=O)Nc2ccc(Cl)cc2)CC(C)(C)N1 [NBD-556] | 100 | 0.302 | 45.7 | 11.1 | –
6 | C/C=C(/C)C(=O)O[C@H]1c2cc(OC)c(OC)c(OC)c2-c2c(cc3c(c2OC)OCO3)C[C@H](C)[C@]1(C)O [Schisantherin B] | 100 | 0.365 | 65.9 | > 100 | –
7 | Cc1cc(C)nc(NS(=O)(=O)c2ccc(NC(=S)NC(=O)COc3ccc(Br)cc3Cl)cc2)n1 [ZCL 278] | 100 | 0.221 | > 100 | > 100 | –
8 | CC(C)(C)C1=C(O)C(C(C)(C)C)=CC(/C=C(C#N)\C#N)=C1 [Malonoben] | 0.14 | 0.861 | > 100 | > 100 | –
9 | C=C(C)[C@@H]1CC[C@]2(C(=O)O)CC[C@]3(C)[C@H](CC[C@@H]4[C@@]5(C)CC[C@H](O)C(C)(C)[C@@H]5CC[C@]43C)[C@@H]12 [Betulinic acid] | > 100 | 0.4 | > 100 | 100 | –
10 | O=c1cc(-c2ccccc2)oc2cc(O)c(O)c(O)c12 [Baicalein] | > 100 | 0.551 | > 100 | > 100 | –
11 | Cl.Nc1c(Br)cc(Br)cc1CN[C@H]1CC[C@H](O)CC1 [Ambroxol] | 100 | 0.244 | 42.5 | > 100 | –
12 | C[C@H]1CC[C@@]2(OC1)O[C@H]1C[C@H]3[C@@H]4CC[C@@H]5C[C@@H](O[C@@H]6O[C@H](CO)[C@H](O)[C@H](O)[C@H]6O[C@@H]6O[C@H](CO)[C@@H](O)[C@H](O)[C@H]6O)CC[C@]5(C)[C@H]4CC[C@]3(C)[C@H]1[C@@H]2C [Timosaponin AIII] | > 100 | 0.935 | > 100 | > 100 | –
13 | CC(C)(Sc1cc(C(C)(C)C)c(O)c(C(C)(C)C)c1)Sc1cc(C(C)(C)C)c(O)c(C(C)(C)C)c1 [Probucol] | 0.005 | 0.134 | > 100 | > 100 | –
14 | C[C@@H]1CC[C@H]2[C@@H](C)C(=O)O[C@@H]3O[C@@]4(C)CC[C@@H]1[C@]32OO4 [Artemisinin] | 33.3 | 0.169 | 39.4 | 3.7 | –
15 | C[C@@H]1CCO[C@H]2Cn3cc(C(=O)NCc4ccc(F)cc4F)c(=O)c(O)c3C(=O)N12 [Dolutegravir] | > 100 | 0.167 | > 100 | > 100 | –
16 | O=C1CCC[C@@H]2[C@H]3CCCN4CCC[C@@H](CN12)[C@@H]34 [Matrine] | > 100 | 0.14 | > 100 | > 100 | –
17 | C/C=C/C[C@@H](C)[C@@H](O)[C@H]1C(=O)N[C@@H]([C@@H](C)O)C(=O)N(C)CC(=O)N(C)[C@@H](CC(C)C)C(=O)N[C@@H](C(C)C)C(=O)N(C)[C@@H](CC(C)C)C(=O)N[C@@H](C)C(=O)N[C@H](C)C(=O)N(C)[C@@H](CC(C)C)C(=O)N(C)[C@@H](CC(C)C)C(=O)N(C)[C@@H](C(C)C)C(=O)N1C [Cyclosporin C] | 33.3 | 0.918 | > 100 | 3.7 | –
18 | Ic1cccc(/C=N/Nc2nc(N3CCOCC3)nc(N(c3ccccc3)c3ccccc3)n2)c1 [Vacuolin-1] | 33.3 | 0.271 | > 100 | > 100 | –
19 | CCS(=O)(=O)Nc1ccc2c(c1)/C(=C(/Nc1ccc(CN3CCCCC3)cc1)c1ccccc1)C(=O)N2 [Hesperadin] | 3.7 | 0.882 | 2.02 | > 100 | –
